Measured values as given in PMC6161059 (ACS Central Science, 2018).

How the values were obtained:
[1] = target: β2AR(1.19H4) (Homo sapiens, UniProt P07550, INS20HHHH); assay: Fluorescence Ca2+ imaging; type: cell-based; conditions: 1 µM MAC(β2AR, O4), 5 µM U73122
[2] = target: T1, M1R(1.18H4) (Homo sapiens, UniProt P11229); type: cell-based; conditions: CHO cells, 1 μM Ni–NTA
T1 sequence (P11229 1-460): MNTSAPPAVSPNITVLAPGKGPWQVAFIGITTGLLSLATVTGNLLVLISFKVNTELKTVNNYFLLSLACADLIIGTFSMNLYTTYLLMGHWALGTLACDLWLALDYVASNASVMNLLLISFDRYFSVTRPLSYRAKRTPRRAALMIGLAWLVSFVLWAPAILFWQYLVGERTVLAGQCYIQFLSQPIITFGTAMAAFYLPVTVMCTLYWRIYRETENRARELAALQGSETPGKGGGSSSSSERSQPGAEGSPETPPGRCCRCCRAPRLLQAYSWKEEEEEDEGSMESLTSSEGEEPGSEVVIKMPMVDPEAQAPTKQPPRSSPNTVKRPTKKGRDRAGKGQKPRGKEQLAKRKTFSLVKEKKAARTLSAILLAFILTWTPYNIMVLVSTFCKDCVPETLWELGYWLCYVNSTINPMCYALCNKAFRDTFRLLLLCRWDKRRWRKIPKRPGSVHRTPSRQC

SMILES	MAC(β2AR, O4)-induced Ca2+ response in presence of PLC inhibitor [1]	concentration–response on addition of Ni–NTA [2]
COc1ccc2c(c1)CC[C@@H]1[C@@H]2CC[C@]2(C)[C@@H](NCCCCCCN3C(=O)C=CC3=O)CC[C@@H]12 [U73122]	no response was detected	–
C[N+](C)(C)CC#CCOC1=NOCC1 [iperoxo]	–	unaffected
